From patent US4500545A, “Hydroxyaminotetralincarboxamides” (Eli Lilly and Company, priority 1984, dated 1985)
Entries after “also recorded” stand apart in the source; their conditions may differ.

Tests used:
[1] = system: mean arterial blood pressure, anesthetized spontaneously hypertensive rats; experiment: Blood pressure lowering in anesthetized spontaneously hypertensive rats (SHR); type: in vivo, rat (spontaneously hypertensive); conditions: ± standard error
Method: As previously stated, the compounds of this invention are dopamine agonists. As such, one of their properties, shared by many dopamine agonists, is the ability to lower blood pressure in anesthetized spontaneously hypertensive rats (SHR). Table 1 which follows gives the results of testing compounds of this invention which lowered the blood pressure of anesthetized SHR at dose levels of 1 mg./kg. or lower. In the Table, the first 4 columns give the substitution pattern of the hydroxyaminonaphthalene carboxamide and the second 4 columns the percent blood pressure lowering±standard error for the particular compound at 4 different dose levels.

prolactin secretion = experiment: Prolactin secretion inhibition in reserpine-treated rats; type: in vivo, rat (adult male Sprague-Dawley); conditions: 1 mg./kg. intraperitoneal; reserpine-pretreated male rats; serum 1 hour after treatment
Method: The compounds of this invention are also useful as inhibitors of prolactin secretion. Dopaminergic drugs with such activity can be employed in the treatment of inappropriate lactation, such as postpartum lactation and galactorrhea. […] Each rat received an intraperitoneal injection of 2.0 mg. of reserpine in aqueous suspension 18 hours before administration of the test compound. The purpose of the reserpine was to keep prolactin levels uniformly elevated. The compounds under test were dissolved in water and were injected intraperitoneally at a 1 mg./kg. dose level. Each compound was administered to a group of 10 rats, and a control group of 10 intact males received an equivalent amount of solvent only. One hour after treatment all rats were killed by decapitation, and 150 μl. aliquots of serum were assayed for prolactin.
In the table, column 1 gives the name of the compound and column 2, the percent inhibition of prolactin secretion. The dosage was 1 mg./kg.

dopamine receptor = conditions: literature; cited from earlier work
[2] = literature; cited from earlier work
[3] = system: 6-hydroxydopamine-lesioned rats (nigro-neostriatal-lesioned), turning behavior; experiment: Turning behavior in 6-hydroxydopamine-lesioned rats; type: in vivo, rat; conditions: 1 mg./kg. intraperitoneal; for Number of turns (average): counted over a 15-minute period after latency
Text: Compounds with dopaminergic or dopamine agonist activity also affect turning behavior in a test procedure utilizing 6-hydroxydopamine-lesioned rats. In this test, nigro-neostriatal-lesioned rats, prepared by the procedure of Ungerstedt and Arbuthnott, Brain Res, 24, 485 (1970), are employed. A compound having dopamine agonist activity, upon injection, causes the rats to turn in circles contralateral to the side of the lesion. After a latency period, which varies from compound to compound, the number of turns is counted over a 15-minute period. The drugs to be administered are dissolved in water and the resulting aqueous solution injected into the rat by the intraperitoneal route at a 1 mg./kg. dose level.

Structure (SMILES) | Percent lowering of mean arterial blood pressure ([1]; 1 mg./kg.) [%] | Percent lowering of mean arterial blood pressure ([1]; 7 mcg./kg.) [%] | Percent lowering of mean arterial blood pressure ([1]; 10 mcg./kg.) [%] | Percent lowering of mean arterial blood pressure ([1]; 100 mcg./kg.) [%] | Percent Inhibition of Prolactin Secretion (prolactin secretion) [%] | dopamine-like activity (in words) (dopamine receptor) | further results
NC(=O)c1cc2c(cc1O)CCC(N)C2 (racemic) [dl-3-Hydroxy-7-amino-5,6,7,8-tetrahydro-2-naphthlenecarboxamide] | -18.3 ± 4.3 | -3.6 ± 0.4 | -5.2 ± 0.8 | -10.2 ± 1.2 | 18 |  | 
NC1CCc2cc(O)c(O)cc2C1 (centres unmarked) [ADTN, 2-amino-6,7-dihydroxy-1,2,3,4-tetralin] |  |  |  |  |  | dopamine-like action | 
CC(C)NC1CCc2c(ccc(O)c2CO)C1O (centres unmarked) [1-hydroxymethyl-2,5-dihydroxy-6-isopropylamino-5,6,7,8-tetrahydronaphthalene] |  |  |  |  |  |  | bronchodilator activity (in words) [2]: bronchodilator
CN(C)C1CCc2cc(O)c(C(N)=O)cc2C1 (racemic) [dl-3-hydroxy-7-dimethylamino-5,6,7,8-tetrahydro-2-naphthalenecarboxamide] | -32.5 ± 2.2 | -6.2 ± 0.7 | -14.0 ± 0.5 | -25.1 ± 3.0 | 36 |  | Percentage of rats exhibiting turning behavior [3]: 50%; Number of turns (average) [3]: 20
CCCN(CCC)C1CCc2c(ccc(O)c2C(N)=O)C1 (racemic) [dl-2-Hydroxy-6-di-n-propylamino-5,6,7,8-tetrahydro-1-naphthalenecarboxamide] |  |  |  |  | 12 |  | 
CN(C)C1CCc2c(ccc(O)c2O)C1 (centres unmarked) [Example M7, 2-dimethylamino-5,6-dihydroxy-1,2,3,4-tetralin] |  |  |  |  |  | dopamine-like activity; also recorded: Its action parallels that of apomorphine | 
CN(C)C1CCc2c(ccc(O)c2C(N)=O)C1 (racemic) [R=CONH2, R^1=H, R^2=Me, R^3=Me, dl-2-hydroxy-6-dimethylamino-5,6,7,8-tetrahydro-1-naphthalenecarboxamide] | -6.0 ± 0.5 | -6.8 ± 0.3 | -5.7 ± 0.3 | -6.7 ± 0.8 |  |  | 
NC(=O)c1c(O)ccc2c1CCC(N)C2 (racemic) [dl-2-Hydroxy-6-amino-5,6,7,8-tetrahydronaphthalene-1-carboxamide] |  |  |  |  | 13 |  | 
CN(C)C1CCc2cc(O)c(O)cc2C1 (stereo not drawn) [6,7-dihydroxy isomer] |  |  |  |  |  | presynaptic dopamine receptor agonist | 
CCCN(CCC)C1CCc2cc(O)c(C(N)=O)cc2C1 (racemic) [dl-3-Hydroxy-7-di-n-propylamino-5,6,7,8-tetrahydro-2-naphthalenecarboxamide] | -41.9 ± 1.6 | -6.8 ± 0.5 | -19.6 ± 0.8 | -35.9 ± 2.3 | 88 |  | Percentage of rats exhibiting turning behavior [3]: 75%; Number of turns (average) [3]: 71
